# Test results taken from publication PMC9139161, “Phenolics from Chrozophora oblongifolia Aerial Parts as Inhibitors of α-Glucosidases and Advanced Glycation End Products: In-Vitro Assessment, Molecular Docking and Dynamics Studies” (Biology, 2022).
# pIC50: −log10 of the molar value. Values joined by “and” are separate entries in the source; they are usually repeats but may differ in a detail not shown here. Identical values can stand only once.
# Experiments:
# [1] = Metal chelation assay (ferrozine); settings: EDTA equivalents; mean ± SD
# Method: Isolated compounds were dissolved in DMSO to prepare a concentration of 0.5 mg/mL, meanwhile, the positive control (EDTA) was used to prepare a stock solution of 100 µM in water; from which six concentrations were prepared including 5, 10, 20, 40, 50 and 80 µM to construct the dose-response curve. The assay was carried out as previously reported, with minor modifications. Briefly, in 96 wells plate (n = 6) 20 µL of the freshly prepared ferrous sulfate (0.3 mM) was mixed with 50 µL of the tested compound and incubated with 30 µL of ferrozine (0.8 mM) for 10 min at room temperature. Finally, reduction in color intensity was assessed at 540 nm using a microplate reader (Tecan, San Jose, CA, USA). Data are represented as means (n = 3) ± SD and the antioxidant effect of the extracts was calculated as µM EDTA equivalents by substitution in the linear regression equation (Supplementary Figure S4).
# [2] = system: advanced glycation end products (AGEs) formation, BSA-fructose model; test: AGEs formation inhibition, BSA-fructose assay; type: biochemical; settings: AGEs fluorescence, 72 h, 37 °C; read-out: BSA-Fructose Model IC50 (Mean ± SE)
# Method: The isolated compounds were prepared at final concentrations of 500 µM in DMSO in the BSA-fructose assay, and 1000 µM in all other AGEs assays. Compounds that exceeded 50% inhibition at this concentration were serially diluted to determine their IC50. All tests were conducted using quercetin (positive control).
# According to the previous report, the inhibition test for AGE formation was assessed using the BSA-fructose model. Briefly, BSA (50 mg/mL) and fructose (1.25 M) (in 200 mM phosphate buffer, pH 7.4, with 0.02% sodium azide) were incubated with Sample/blank in the dark for 72 h at 37 °C, (1:1:1 by volume). On a microplate reader (Fluostar Omega BMG Labtech, Ortenberg, Germany), fluorescent AGEs were detected using excitation and emission wavelengths of 355 nm and 460 nm, respectively. Triplicates of all experiments were performed, and the percentage of AGEs inhibition was calculated.
# [3] = Oxygen radical absorbance capacity (ORAC) assay; settings: Trolox equivalents
# Method: Isolated compounds were dissolved in DMSO to prepare a concentration of 0.25 mg/mL, meanwhile, the positive control (Trolox) was used to prepare a stock solution of 1 mM in MeOH; from which nine concentrations were prepared including 400, 300, 200, 150, 100, 75, 50, 25, and 12.5 µM to construct the dose-response curve. The assay was carried out as previously reported, with minor modifications. Briefly, 12.5 µL of the prepared sample(s) were incubated with 75 µL fluoresceine (10 nM) for 30 min at 37 °C. Measuring fluorescence was performed (520 EM, 485 EX, nm) for 3 cycles (90 s cycle time) for background measurement (Supplementary Figure S5). Subsequently, to each well, freshly-made AAPH (2,2′-azobis(2-amidinopropane) dihydrochloride) (12.5 µL, 240 mM) was immediately added. Measuring fluorescence (520 EM, 485 EX, nm) was maintained (90 s × 85 cycles) for 2.5 h (Supplementary Figure S5). The antioxidant potential (µM trolox equivalents) was estimated by substituting in the linear-regression equation.
# DPPH assay = settings: read-out: DPPH assay IC50 (Mean ± SE)
# Method: Isolated compounds were prepared in final concentrations of 1000 µM in DMSO. Compounds that exceeded 50% inhibition at this concentration were serially diluted to determine their IC50. Ascorbic acid was used as a positive control, prepared in a concentration of 100 µM in water from which six concentrations were prepared to calculate its IC50. The method is based on the reduction of free radical of 2,2-diphenyl-1-picrylhydrazyl (DPPH). Briefly, in a 96-well plate, 20 μL of the isolated compound was incubated for 20 min in the absence of light with 180 μL of DPPH reagent (100 μM). The reduction of intensity in the color of DPPH was assessed on a microplate reader (TECAN, Männedorf, Switzerland) at 540 nm (Supplementary Table S2).
# [4] = Ferric reducing antioxidant power (FRAP) assay; settings: ascorbic acid equivalents; mean ± SD, n = 3
# Method: Isolated compounds were dissolved in DMSO to prepare a 0.5 mg/mL concentration, meanwhile, the positive control (ascorbic acid) was used to prepare a stock solution of 1000 µM in water; from which seven concentrations were prepared including 15.625, 31.25, 62.5, 125, 250 and 500 µM to construct the dose-response curve. The method of the assay depends on the reduction of Fe^3+ to Fe^2+, which is chelated by 2,4,6-tris(2-pyridyl)-s-triazine (TPTZ) to form Fe^2+-TPTZ complex which is known as FRAP (ferric reducing antioxidant power). Briefly, 190 μL of FRAP reagent (300 mM sodium acetate buffer pH 3.6, 10 mM TPTZ, and 20 mM ferric chloride, (10:1:1)) was incubated in the dark with 10 μL of the isolated compound in a 96-well plate for 30 min at 37 °C and absorbance was determined at 620 nm using microplate reader (Tecan, San Jose, CA, USA). Data are represented as means (n = 3) ± SD and the antioxidant effect of the extract was calculated as µM Ascorbic acid equivalents by substitution in the linear regression equation (Supplementary Figure S3).
Compound,Metal chelation [1],pIC50 [2],ORAC assay [3],pIC50 (DPPH assay),FRAP [4]
"C[C@@H]1O[C@@H](OC[C@H]2O[C@@H](Oc3c(-c4ccc(O)c(O)c4)oc4cc(O)cc(O)c4c3=O)[C@H](O)[C@@H](O)[C@@H]2O)[C@H](O)[C@H](O)[C@H]1O [Compound 4, rutin]",28.96±2.07 µM EDTA eq/mg and 28.96 µM EDTA eq/mg,4.43,2.164±0.096 mM TE/mg and 2.16 mM TE/mg,4.72,2.658±0.168 mM AAE/mg and 2.66 mM AAE/mg
"O=C(O)[C@H]1O[C@@H](Oc2c(-c3ccc(O)c(O)c3)oc3cc(O)cc(O)c3c2=O)[C@H](O)[C@@H](O)[C@@H]1O [Compound 2, quercetin-3-O-β-D-glucuronic acid]",8.29±0.05 µM EDTA eq/mg and 8.29 µM EDTA eq/mg,3.58,0.739±0.098 mM TE/mg and 0.74 mM TE/mg,4.54,0.727±0.021 mM AAE/mg and 0.73 mM AAE/mg
"O=C(O)[C@H]1O[C@@H](Oc2c(-c3ccc(O)c(O)c3)oc3cc(O)cc(O)c3c2=O)[C@H](O)[C@@H](O)[C@H]1O [Compound 3, quercetin-3-O-β-D-galacturonic acid]",28.26±0.78 µM EDTA eq/mg and 28.26 µM EDTA eq/mg,3.30,0.538±0.015 mM TE/mg and 0.54 mM TE/mg,3.91,0.494±0.066 mM AAE/mg and 0.49 mM AAE/mg
"O=c1cc(-c2ccc(O)cc2)oc2cc(O[C@@H]3O[C@H](CO)[C@@H](O)[C@H](O)[C@H]3O)cc(O)c12 [Compound 1, apeginin-7-O-β-D-glucoside]",19.26±1.52 µM EDTA eq/mg and 19.26 µM EDTA eq/mg,3.52,1.092±0.067 mM TE/mg and 1.09 mM TE/mg,3.44,0.225±0.003 mM AAE/mg and 0.23 mM AAE/mg
"O=C(OC[C@H]1O[C@H](OC(=O)c2cc(O)c(O)c(O)c2)[C@H](O)[C@@H](OC(=O)c2cc(O)c(O)c(O)c2)[C@@H]1O)c1cc(O)c(O)c(O)c1 (stereo in doubt) [Compound 5, 1,3,6-trigalloyl glucose]",17.52±2.43 µM EDTA eq/mg and 17.52 µM EDTA eq/mg,4.46,1.119±0.116 mM TE/mg and 1.11 mM TE/mg,5.40,7.228±0.279 mM AAE/mg and 7.23 mM AAE/mg
